Data as given in the supplement of paper PMC10307832.

What was measured:
Test in all cases: relative viability (nuclei count vs DMSO), 5 days (fraction); higher = more cells survive
BAM7 + AZD7762 = compound: CCOC1=CC=CC=C1N=NC2=C(NN(C2=O)C3=NC(=CS3)C4=CC=CC=C4)C [BAM7] + NC(=O)Nc1cc(-c2cccc(F)c2)sc1C(=O)N[C@H]1CCCNC1 [AZD7762] (partner 0.2 µM)
In short: (§1)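 After 5 days of treatment, lung cancer cells in 1536-well plates were fixed and stained in a single step (final 0.05% Triton X-100, 1% formaldehyde, 1 ug/ml Hoechst) and their nuclei counted on 4× images. Treatment had been applied by pin tool the day after seeding as one drug alone or as a fixed anchor-drug dose with five library-drug doses (not always all listed) in √10 steps. Relative viability is the nuclei count of treated wells divided by that of vehicle wells, and values are medians of duplicate plates.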

[1] = compound: CCn1c(-c2nonc2N)nc2c(C#CC(C)(C)O)ncc(OC[C@H]3CCCNC3)c21 + Nc1ncn([C@H]2C[C@H](O)[C@@H](CO)O2)c(=O)n1 [Decitabine] (partner 2 µM)
In short: as §1

[2] = compound: CCn1c(-c2nonc2N)nc2c(C#CC(C)(C)O)ncc(OC[C@H]3CCCNC3)c21 + C[C@@H](Oc1cc(-c2cnn(C3CCNCC3)c2)cnc1N)c1c(Cl)ccc(F)c1Cl [Crizotinib] (partner 1 µM)
In short: as §1

BAM7 + Palbociclib = compound: CCOC1=CC=CC=C1N=NC2=C(NN(C2=O)C3=NC(=CS3)C4=CC=CC=C4)C [BAM7] + CC(=O)c1c(C)c2cnc(Nc3ccc(N4CCNCC4)cn3)nc2n(C2CCCC2)c1=O [Palbociclib] (partner 0.5 µM)
In short: as §1

Work on HCC-44 yielded a relative viability (BAM7 + AZD7762; first compound 0.5 µM) of 1.03, a relative viability (BAM7 + AZD7762; first compound 5 µM) of 0.964 and a relative viability (BAM7 + AZD7762; first compound 15.81 µM) of 1.05. For the same cell line, the relative viability (BAM7 + AZD7762; first compound 50 µM) was 0.983, the relative viability ([1]; first compound 0.01 µM) was 0.957 and the relative viability ([1]; first compound 0.03162 µM) was 0.888. It also gave a relative viability ([1]; first compound 0.1 µM) of 0.902, a relative viability ([1]; first compound 0.3162 µM) of 0.968 and a relative viability ([1]; first compound 1 µM) of 0.985. The relative viability ([2]; first compound 0.01 µM) was 0.778, the relative viability ([2]; first compound 0.03162 µM) was 0.803 and the relative viability ([2]; first compound 0.1 µM) was 0.773. The relative viability ([2]; first compound 0.3162 µM) was 0.786, the relative viability ([2]; first compound 1 µM) was 0.758 and the relative viability (BAM7 + Palbociclib; first compound 0.5 µM) was 0.956. The relative viability (BAM7 + Palbociclib; first compound 5 µM) was 0.974, the relative viability (BAM7 + Palbociclib; first compound 15.81 µM) was 0.925 and the relative viability (BAM7 + Palbociclib; first compound 50 µM) was 0.981.
For H3255, the relative viability (BAM7 + AZD7762; first compound 0.5 µM) was 0.831, the relative viability (BAM7 + AZD7762; first compound 5 µM) was 0.838 and the relative viability (BAM7 + AZD7762; first compound 15.81 µM) was 0.73. It also gave a relative viability (BAM7 + AZD7762; first compound 50 µM) of 0.847, a relative viability ([1]; first compound 0.01 µM) of 0.614 and a relative viability ([1]; first compound 0.03162 µM) of 0.58. The relative viability ([1]; first compound 0.1 µM) was 0.639, the relative viability ([1]; first compound 0.3162 µM) was 0.546 and the relative viability ([1]; first compound 1 µM) was 0.6. The relative viability ([2]; first compound 0.01 µM) was 0.805, the relative viability ([2]; first compound 0.03162 µM) was 0.983 and the relative viability ([2]; first compound 0.1 µM) was 0.804. The relative viability ([2]; first compound 0.3162 µM) was 0.598, the relative viability ([2]; first compound 1 µM) was 0.782 and the relative viability (BAM7 + Palbociclib; first compound 0.5 µM) was 0.337. The relative viability (BAM7 + Palbociclib; first compound 5 µM) was 0.341, the relative viability (BAM7 + Palbociclib; first compound 15.81 µM) was 0.359 and the relative viability (BAM7 + Palbociclib; first compound 50 µM) was 0.355.
With NCI-H647 the relative viability (BAM7 + AZD7762; first compound 0.5 µM) was 0.559, the relative viability (BAM7 + AZD7762; first compound 5 µM) was 0.488 and the relative viability (BAM7 + AZD7762; first compound 15.81 µM) was 0.592. For the same cell line, the relative viability (BAM7 + AZD7762; first compound 50 µM) was 0.459, the relative viability ([1]; first compound 0.01 µM) was 0.384 and the relative viability ([1]; first compound 0.03162 µM) was 0.379. It also gave a relative viability ([1]; first compound 0.1 µM) of 0.407, a relative viability ([1]; first compound 0.3162 µM) of 0.299 and a relative viability ([1]; first compound 1 µM) of 0.371. For the same cell line, the relative viability ([2]; first compound 0.01 µM) was 1.04, the relative viability ([2]; first compound 0.03162 µM) was 1.31 and the relative viability ([2]; first compound 0.1 µM) was 1.11. For the same cell line, the relative viability ([2]; first compound 0.3162 µM) was 1.07, the relative viability ([2]; first compound 1 µM) was 0.92 and the relative viability (BAM7 + Palbociclib; first compound 0.5 µM) was 0.506. It also gave a relative viability (BAM7 + Palbociclib; first compound 5 µM) of 0.431, a relative viability (BAM7 + Palbociclib; first compound 15.81 µM) of 0.509 and a relative viability (BAM7 + Palbociclib; first compound 50 µM) of 0.447.
NCI-H23 showed a relative viability (BAM7 + AZD7762; first compound 0.5 µM) of 0.165, a relative viability (BAM7 + AZD7762; first compound 5 µM) of 0.35 and a relative viability (BAM7 + AZD7762; first compound 15.81 µM) of 0.287. It also gave a relative viability (BAM7 + AZD7762; first compound 50 µM) of 0.255, a relative viability ([1]; first compound 0.01 µM) of 0.287 and a relative viability ([1]; first compound 0.03162 µM) of 0.332. It also gave a relative viability ([1]; first compound 0.1 µM) of 0.307, a relative viability ([1]; first compound 0.3162 µM) of 0.27 and a relative viability ([1]; first compound 1 µM) of 0.302. It also gave a relative viability ([2]; first compound 0.01 µM) of 0.477, a relative viability ([2]; first compound 0.03162 µM) of 0.572 and a relative viability ([2]; first compound 0.1 µM) of 0.444. For the same cell line, the relative viability ([2]; first compound 0.3162 µM) was 0.48, the relative viability ([2]; first compound 1 µM) was 0.417 and the relative viability (BAM7 + Palbociclib; first compound 0.5 µM) was 0.612. It also gave a relative viability (BAM7 + Palbociclib; first compound 5 µM) of 0.479, a relative viability (BAM7 + Palbociclib; first compound 15.81 µM) of 0.466 and a relative viability (BAM7 + Palbociclib; first compound 50 µM) of 0.519.
NCI-H1944 gave a relative viability (BAM7 + AZD7762; first compound 0.5 µM) of 0.51, a relative viability (BAM7 + AZD7762; first compound 5 µM) of 0.525 and a relative viability (BAM7 + AZD7762; first compound 15.81 µM) of 0.508. For the same cell line, the relative viability (BAM7 + AZD7762; first compound 50 µM) was 0.623, the relative viability ([1]; first compound 0.01 µM) was 0.443 and the relative viability ([1]; first compound 0.03162 µM) was 0.415. The relative viability ([1]; first compound 0.1 µM) was 0.45, the relative viability ([1]; first compound 0.3162 µM) was 0.446 and the relative viability ([1]; first compound 1 µM) was 0.448. For the same cell line, the relative viability ([2]; first compound 0.01 µM) was 1.07, the relative viability ([2]; first compound 0.03162 µM) was 1.07 and the relative viability ([2]; first compound 0.1 µM) was 1.02. For the same cell line, the relative viability ([2]; first compound 0.3162 µM) was 1.07, the relative viability ([2]; first compound 1 µM) was 1.09 and the relative viability (BAM7 + Palbociclib; first compound 0.5 µM) was 0.365. The relative viability (BAM7 + Palbociclib; first compound 5 µM) was 0.366, the relative viability (BAM7 + Palbociclib; first compound 15.81 µM) was 0.281 and the relative viability (BAM7 + Palbociclib; first compound 50 µM) was 0.37.
NCI-H460 gave a relative viability (BAM7 + AZD7762; first compound 0.5 µM) of 0.595, a relative viability (BAM7 + AZD7762; first compound 5 µM) of 0.751 and a relative viability (BAM7 + AZD7762; first compound 15.81 µM) of 0.494. It also gave a relative viability (BAM7 + AZD7762; first compound 50 µM) of 0.571, a relative viability ([1]; first compound 0.01 µM) of 0.529 and a relative viability ([1]; first compound 0.03162 µM) of 0.398. For the same cell line, the relative viability ([1]; first compound 0.1 µM) was 0.493, the relative viability ([1]; first compound 0.3162 µM) was 0.465 and the relative viability ([1]; first compound 1 µM) was 0.513. For the same cell line, the relative viability ([2]; first compound 0.01 µM) was 0.895, the relative viability ([2]; first compound 0.03162 µM) was 1.07 and the relative viability ([2]; first compound 0.1 µM) was 0.814. The relative viability ([2]; first compound 0.3162 µM) was 0.786, the relative viability ([2]; first compound 1 µM) was 0.884 and the relative viability (BAM7 + Palbociclib; first compound 0.5 µM) was 0.179. For the same cell line, the relative viability (BAM7 + Palbociclib; first compound 5 µM) was 0.148, the relative viability (BAM7 + Palbociclib; first compound 15.81 µM) was 0.216 and the relative viability (BAM7 + Palbociclib; first compound 50 µM) was 0.165.
With EKVX the relative viability (BAM7 + AZD7762; first compound 0.5 µM) was 0.871, the relative viability (BAM7 + AZD7762; first compound 5 µM) was 0.617 and the relative viability (BAM7 + AZD7762; first compound 15.81 µM) was 0.668. For the same cell line, the relative viability (BAM7 + AZD7762; first compound 50 µM) was 0.704, the relative viability ([1]; first compound 0.01 µM) was 0.325 and the relative viability ([1]; first compound 0.03162 µM) was 0.37. For the same cell line, the relative viability ([1]; first compound 0.1 µM) was 0.369, the relative viability ([1]; first compound 0.3162 µM) was 0.347 and the relative viability ([1]; first compound 1 µM) was 0.337. The relative viability ([2]; first compound 0.01 µM) was 0.845, the relative viability ([2]; first compound 0.03162 µM) was 0.929 and the relative viability ([2]; first compound 0.1 µM) was 1.03. For the same cell line, the relative viability ([2]; first compound 0.3162 µM) was 0.667, the relative viability ([2]; first compound 1 µM) was 0.795 and the relative viability (BAM7 + Palbociclib; first compound 0.5 µM) was 0.444. It also gave a relative viability (BAM7 + Palbociclib; first compound 5 µM) of 0.39, a relative viability (BAM7 + Palbociclib; first compound 15.81 µM) of 0.337 and a relative viability (BAM7 + Palbociclib; first compound 50 µM) of 0.429.
NCI-H358 was tested, and the relative viability (BAM7 + AZD7762; first compound 0.5 µM) was 0.62, the relative viability (BAM7 + AZD7762; first compound 5 µM) was 0.519 and the relative viability (BAM7 + AZD7762; first compound 15.81 µM) was 0.5. The relative viability (BAM7 + AZD7762; first compound 50 µM) was 0.55, the relative viability ([1]; first compound 0.01 µM) was 0.234 and the relative viability ([1]; first compound 0.03162 µM) was 0.191. The relative viability ([1]; first compound 0.1 µM) was 0.221, the relative viability ([1]; first compound 0.3162 µM) was 0.207 and the relative viability ([1]; first compound 1 µM) was 0.201. For the same cell line, the relative viability ([2]; first compound 0.01 µM) was 0.485, the relative viability ([2]; first compound 0.03162 µM) was 0.604 and the relative viability ([2]; first compound 0.1 µM) was 0.51. The relative viability ([2]; first compound 0.3162 µM) was 0.669, the relative viability ([2]; first compound 1 µM) was 0.611 and the relative viability (BAM7 + Palbociclib; first compound 5 µM) was 0.129. The relative viability (BAM7 + Palbociclib; first compound 15.81 µM) was 0.141 and the relative viability (BAM7 + Palbociclib; first compound 50 µM) was 0.137.
Work on NCI-H1648 yielded a relative viability (BAM7 + AZD7762; first compound 0.5 µM) of 0.489, a relative viability (BAM7 + AZD7762; first compound 5 µM) of 0.775 and a relative viability (BAM7 + AZD7762; first compound 15.81 µM) of 0.633. For the same cell line, the relative viability (BAM7 + AZD7762; first compound 50 µM) was 0.921, the relative viability ([1]; first compound 0.01 µM) was 0.565 and the relative viability ([1]; first compound 0.03162 µM) was 0.482. It also gave a relative viability ([1]; first compound 0.1 µM) of 0.464, a relative viability ([1]; first compound 0.3162 µM) of 0.491 and a relative viability ([1]; first compound 1 µM) of 0.498. It also gave a relative viability (BAM7 + Palbociclib; first compound 0.5 µM) of 0.303, a relative viability (BAM7 + Palbociclib; first compound 5 µM) of 0.257 and a relative viability (BAM7 + Palbociclib; first compound 15.81 µM) of 0.264. It also gave a relative viability (BAM7 + Palbociclib; first compound 50 µM) of 0.375.
